Results reported in ChEMBL document CHEMBL3992492, “Sulfoximines from a Medicinal Chemist's Perspective: Physicochemical and in vitro Parameters Relevant for Drug Discovery” (Eur J Med Chem, 2017).
Converted amounts (≈) assume the structure as drawn.

Assays:
in vitro [1] = settings: human, liver microsomes
physchem [2] = settings: n-octanol/aqueous mixture, pH 7.4
in vitro [3] = settings: human, liver microsomes; remark: listed apart in the source
Description: Half life in human liver microsomes at 1 uM in presence of NADPH by LC-MS/MS method

physchem [4] = settings: aqueous
physchem [5] = settings: aqueous/organic mixture, pH 2
physchem [6] = settings: acetonitrile/water mixture
Description: Solubility of the compound in acetonitrile/water mixture at 10 mM measured after 24 by HPLC-UV method

in vitro [7] = settings: PAMPA, pH 7.4
Description: Apparent permeability of the compound at pH 7.4 by PAMPA

physchem [8] = settings: n-octanol/aqueous mixture, pH 2
[9] = Drug degradation in pH <1 HCl after 7 days by HPLC method
[10] = Dissociation constant, pKb of the compound in aqueous/organic mixture at pH 2 to 12 by potentiometric titration method; format: physicochemical; settings: buffer
physchem [11] = settings: octanol/water, pH 10
[12] = Drug degradation in pH >10 NH3 after 7 days by HPLC method
[13] = Apparent partition coefficient, log P of the compound in n-octanol/aqueous mixture at pH 3 by potentiometric titration method; format: physicochemical
[14] = Dissociation constant, pKb of the compound in aqueous phase at pH 2 to 12 by potentiometric titration method; format: physicochemical; settings: buffer
[15] = octanol/water, pH 7.4
[16] = Apparent partition coefficient, log P of the compound in n-octanol/aqueous mixture at pH 12 by potentiometric titration method; format: physicochemical; settings: octanol/water
[17] = Dissociation constant, pKa of the compound; format: physicochemical

SMILES	hepatic extraction ratio at 1 µM (in vitro [1])	logD (physchem [2])	half-life at 1 µM (in vitro [3]) [h]	solubility thermodynamic (physchem [4]) [mg/mL]	pKa (physchem [5])	solubility at 10000 µM (physchem [6]) [mg/mL]	Papp (in vitro [7]) [nm/s]	logD (physchem [8])	pKb [10]	logP (physchem [11])	logD [13]	pKb [14]	logD [15]	logP [16]	pKa [17]	Drug degradation [9] [%]	Drug degradation [12] [%]
CS(=O)(=O)NC(=O)c1ccc(C(F)(F)F)cc1	< 0.23	-1	> 2.17	> 20	3.2	> 0.062	0.1	1.7	–	–	–	–	–	–	–	–	–
O=S1(c2ccc(C(F)(F)F)cc2)=NCCCC1 (configuration not stated)	< 0.23	–	> 2.17	4.7 (≈ 17900 µM)	–	> 0.059	92	–	3.8	0.2	–	–	–	–	–	< 10	34
CS(C)(=N)=Nc1ccc(C(F)(F)F)cc1	< 0.23	–	> 2.17	8.4 (≈ 35600 µM)	–	> 0.051	56	–	4	-0.5	–	–	1.8	1.8	–	–	–
CNS(=N)(=O)c1ccc(C(F)(F)F)cc1 (configuration not stated)	0.45	–	0.783	6.9 (≈ 29000 µM)	–	–	57	–	2.4	-0.5	–	–	0.9	0.9	–	10	< 10
O=S1(=N[C@H]2CC[C@@H](C(F)(F)F)CC2)CCCCC1	0.43	–	0.867	< 0.05	–	–	100	–	5	–	–	–	3.5	3.5	–	–	–
CS(=O)(=O)NC(=O)Nc1ccc(C(F)(F)F)cc1	< 0.23	-0.3	> 2.17	11.1 (≈ 39300 µM)	4.2	0.055 (≈ 195 µM)	0.4	1.9	–	–	–	–	–	–	–	–	–
CS(=N)(=O)c1ccccc1 (configuration not stated)	–	–	–	–	–	–	–	–	–	–	–	–	–	–	2.7	–	–

More lines, main results first:

hepatic extraction ratio at 1 µM (in vitro [1])	logD (physchem [2])	half-life at 1 µM (in vitro [3]) [h]	solubility thermodynamic (physchem [4]) [mg/mL]	pKa (physchem [5])	solubility at 10000 µM (physchem [6]) [mg/mL]	Papp (in vitro [7]) [nm/s]	logD (physchem [8])	pKb [10]	logP (physchem [11])	logD [13]	pKb [14]	logD [15]	logP [16]	pKa [17]	SMILES	Drug degradation [9] [%]	Drug degradation [12] [%]
< 0.23	1.9	> 2.17	0.6 (≈ 2510 µM)	8	0.047 (≈ 196 µM)	51	–	–	–	2	–	–	–	–	CS(=O)(=O)Nc1ccc(C(F)(F)F)cc1	–	–
–	–	–	–	–	–	–	–	–	–	–	5.4	–	–	–	O=S1(=O)CCNCC1	–	–
< 0.23	2.3	> 2.17	0.9 (≈ 3760 µM)	10.7	> 0.049	63	2.3	–	–	–	–	–	–	–	CNS(=O)(=O)c1ccc(C(F)(F)F)cc1	–	–
0.25	–	1.83	0.5 (≈ 1810 µM)	–	0.044 (≈ 159 µM)	73	–	4	1.3	–	–	–	–	–	N=S1(=Nc2ccc(C(F)(F)F)cc2)CCCCC1	13	< 10
< 0.23	1.4	> 2.17	0.8 (≈ 3550 µM)	9.4	> 0.048	41	1.4	–	–	–	–	–	–	–	NS(=O)(=O)c1ccc(C(F)(F)F)cc1	–	–
< 0.23	–	> 2.17	9.1 (≈ 40800 µM)	–	> 0.05	69	–	2.5	–	–	–	2	2	–	CS(=N)(=O)c1ccc(C(F)(F)F)cc1 (configuration not stated)	–	–
< 0.23	–	> 2.17	0.3 (≈ 1230 µM)	–	–	78	–	4.2	–	–	–	2.4	2.4	–	CS(C)(=O)=N[C@H]1CC[C@@H](C(F)(F)F)CC1	–	–
–	–	–	–	–	–	–	–	–	–	–	–	–	–	2.3	CS(=N)(=O)c1ccc(Cl)cc1 (configuration not stated)	–	–
